Measured values as given in patent US20230372232A1, “ORAL CARE COMPOSITION COMPRISING SWEET POTATO-DERIVED POTATO SYRUP OR SUPERNATANT OF POTATO SYRUP” (KARAIMO NOJYO CO., LTD., priority 2020, published 2023).

What was measured:
[1] = tested on: Streptococcus mutans; assay: Tooth plaque formation inhibition by potato syrup with malt, crystal violet A570 (Test Example 6); format: cell-based; conditions: 1% concentration sucrose; BHI medium, 37° C., 48 hours
Description: A basic sample was produced by impregnating 1% concentration sucrose (white sugar) in a BHI medium and adding 0.1 mL of Streptococcus mutans liquid (approximately 1000 bacterial bodies) thereto. Next, another additive-free sample in which the sucrose (white sugar) was not at all impregnated in the basic sample was produced. There were also individually produced a sample in which 10% of the potato syrup with malt of Example 3 was added instead of the 1% concentration sucrose (white sugar) to the basic sample and a sample in which 10% of the potato syrup of Example 1-B was added instead of the 1% concentration sucrose (white sugar) to the basic sample. The respective samples were subject to a culture process at 37° C. for 48 hours. Afterwards, the supernatant liquids of the culture fluids were discarded, and then, the respective samples were washed twice with 0.2 mL of distilled water. Afterwards, 0.2 mL each of 0.1% crystal violet were added to each of the samples, a stir staining operation was performed for 20 minutes, and then, the staining fluids were discarded. The residues were washed twice with 0.2 mL of distilled water. Then, the pigment was eluted with 0.2 mL of 99.5% ethanol and the absorbance (570 nm) was measured. Based on the results, the plaque (tooth plaque) formation inhibition rates (%) were calculated.

[2] = tested on: Streptococcus mutans; assay: Tooth plaque formation inhibition, crystal violet A570 (Test Examples 3 and 4); format: cell-based; conditions: 1% concentration sucrose (sample 8); BHI medium, 37° C., 48 hours
Description: A basic sample (a sample 8) was produced by impregnating 1% concentration sucrose (white sugar) in a BHI medium of twice the normal concentration and adding 0.1 mL of Streptococcus mutans liquid (approximately 1000 bacterial bodies) thereto. Next, another sample (a sample 9) in which the sucrose (white sugar) was not at all impregnated in the basic sample (the sample 8) was produced. There were also individually produced a sample (10) in which 10% of the potato syrup of Example 1-A was added instead of the 1% concentration sucrose (white sugar) to the basic sample (the sample 8), a sample (11) in which 10% of the potato syrup of Example 1-B was added instead of the 1% concentration sucrose (white sugar) to the basic sample (the sample 8), and a sample (12) in which 10% of the potato syrup of Example 1-C was added instead of the 1% concentration sucrose (white sugar) to the basic sample (the sample 8). The respective samples were subject to a culture process at 37° C. for 48 hours. […] Then, the pigment was eluted with 0.2 mL of 99.5% ethanol, and the absorbance (570 nm) was measured. Based on the results, the plaque (tooth plaque) formation inhibition rates (%) were calculated. The results are shown in FIG. 3. plaque formation inhibition rate (%)=[A570(no sucrose added)−A570 (sample added)]/A570(no sucrose added)×100 A570: absorbance of crystal violet eluted with ethanol at 570 nm. […]

OC[C@H]1O[C@@](CO)(O[C@H]2O[C@H](CO)[C@@H](O)[C@H](O)[C@H]2O)[C@@H](O)[C@@H]1O [sucrose]
plaque (tooth plaque) formation [1]: the plaque (tooth plaque) rapidly grew | plaque (tooth plaque) formation [2]: the plaque (tooth plaque) rapidly grew
